From patent EP4389739A1, “MOLECULE HAVING PESTICIDAL UTILITY AND PROCESSES RELATED THERETO” (Corteva Agriscience LLC, priority 2022, dated 2024)

Tests used:
Type in all cases: in vivo
[1] = tested on: root knot nematode (RKN), Meloidogyne incognita; test: Root Knot Nematode (RKN) test on cucumber seedlings in greenhouse, Galling Index converted to % control, EC by probit analysis; details: based on % control from Galling Index, cucumber, 4,000 J2s, 14 days in Greenhouse, about 27 °C
Experimental: The following Root Knot Nematode (RKN) test was conducted to compare the activities of S1, R1, and B1.
We conducted an experiment to evaluate comparative bioactivity of S1, R1, and B1 against the root knot nematode (RKN), Meloidogyne incognita. Each of S1, R1, and B1 were tested at […]: 125, 62.5, 31.25, 15.6, 7.8, 3.9, and 2 ppm. Cucumber seeds (Cucumis sativus) were planted in a sandy loam soil in 3-inch pots. After 6 days of germination, the seedlings were treated with the test compounds dissolved in 5% acetone in water. The treated plants were inoculated with 4,000 second stage juveniles (J2s) of M. incognita. Each experimental unit was replicated three times. The inoculated plants were kept in a Greenhouse for 14 days (about 27 °C) before evaluating the amount of root damage (galls) called Galling Index (GI) based on a scale of 0 - 10; where 0 = no galls (100% control), and 10 = maximum galls (no control). The GI was converted to % control using the formula (10 - GI) x 10; where GI = Gall Index. Effective concentration (EC) values based on the % control of the nematode by S1, R1 and B1 were calculated by probit analysis.

[2] = tested on: soybean cyst nematode (SCN): Heterodera glycines second stage juveniles (J2); test: Soybean Cyst Nematode (SCN) in-vitro mortality test; details: mortality after 48 hours of incubation, about 25 °C, 0.5% DMSO in water; probit analysis
Experimental: The following Soybean Cyst Nematode (SCN) test was conducted to compare the activities of S1, R1, and B1.
We carried out an in-vitro experiment to compare activity of S1, R1, and B1 with each other against the soybean cyst nematode (SCN): Heterodera glycines second stage juveniles (J2). Each of S1, R1, and B1 were tested at six rates: 62.5, 15.6, 4, 1, 0.25, and 0 ppm (untreated control, UTC) with three replications of each treatment. Equal volume of nematode suspension was added to an equal volume of compound dissolved in 0.5% DMSO (dimethyl sulfoxide) in water. The nematode plus compound was incubated at room temperature (about 25 °C) on a shaker at 95 revolutions per minutes (RPM). Aliquots of 0.5 milliliters (mL) of the nematode suspension were evaluated under a microscope for mortality after 48 hours of incubation. SCN J2s were counted, and the number of dead and active nematodes was used to calculate % SCN mortality which was used to generate lethal concentration (LC) values by probit analysis.

[3] = tested on: root lesion nematode (RLN), Pratylechus penetrans; test: Root Lesion Nematode (RLN) in-vitro mortality test; details: mortality after 48 hours, about 25 °C, 0.5% DMSO in water
Experimental: The following Root Lesion Nematode (RLN) test was conducted to compare the activities of S1, R1, and B1.
We carried out an in-vitro experiment to compare activity of S1, R1, and B1 with each other against the root lesion nematode (RLN), Pratylechus penetrans. Each of S1, R1, and B1 were tested at six rates: 62.5, 15.6, 4, 1, 0.25, and 0 ppm (UTC) with three replications of each treatment. Equal volume of nematode suspension was added to an equal volume of each of S1, R1, and B1 dissolved in 0.5% DMSO (dimethyl sulfoxide) in water in 25 mL vials. The treated nematode suspension was incubated at room temperature (about 25 °C) on a shaker (95 RPM). Aliquots of 1 mL of the nematode suspension was evaluated under a microscope for mortality after 48 hours. RLN were counted, and the number of dead and active nematodes was used to calculate % mortality from which lethal concentration (LC) values were generated.

[4] = tested on: root knot nematode, Meloidogyne incognita; test: Root knot nematode comparative bioactivity test at a single rate, drench application on cucumber seedlings; details: 600 g ai/ha, 14 days after inoculation, (10 - GI) x 10, three replicates
Experimental: We carried out an experiment to evaluate comparative bioactivity of S 1, C1, C2, C3, C4, and C5 against the root knot nematode, Meloidogyne incognita. Each compound was tested at 600 grams of active ingredient per hectare (g ai/ha) and was replicated three times. Cucumber seeds (Cucumis sativus) were planted in a sandy loam soil in 3-inch pots. After six (6) days of planting, the seedlings were treated with the test compounds dissolved in 5% acetone in water by drench application. The plants were inoculated with 4,000 second stage juveniles (J2s) of M. incognita. The inoculated plants were kept in a Greenhouse for 14 days (temperature 27 °C) before evaluating the amount of root damage (galls) called Galling Index (GI) based on a scale of 0 - 10; where 0 = no galls (100% nematode control), and 10 = maximum galls (no nematode control). The GI was converted to % nematode control using the formula ((10 - GI) x 10); where GI = Gall Index. The data were analyzed by Analysis of Variance using JMP (John's Macintosh Project) statistical software and the means were separated using Tukey's HSD (α = 0.05).

M. incognita = test: Residuality test in soil: treated soil aged four weeks, then cucumber seedlings transplanted and inoculated; details: 1250 g ai/ha applied to bare sandy loam soil, four weeks before transplanting and inoculation; 14 days; four replicates
Experimental: The molecules in Example Two were compared in a residuality test.
A residuality test was conducted to compare the residual control or persistence of S 1, R1, C1, C2, C3, C4, and C5 in soil. Each compound was applied to a bare sandy loam soil (without plant or nematode) in a 3-inch pot at 1250 g ai/ha. The treated soils were kept in a Greenhouse (temperature 27 °C) under regular irrigation for four weeks. At the end of the four weeks, six-day old cucumber (Cucumis sativus) seedlings were transplanted into the treated soil and inoculated with 4,000 second stage juveniles of M. incognita. Each treatment was replicated four times. The inoculated plants were kept in a Greenhouse for 14 days (temperature 27 °C) before evaluating the amount of root damage (galls) called Galling Index (GI) based on a scale of 0 - 10; where 0 = no galls (100% nematode control), and 10 = maximum galls (no nematode control). The GI were converted to % control using the formula ((10 - GI) x 10); where GI = Gall Index. The data were analyzed by Analysis of Variance using JMP (John's Macintosh Project) statistical software and the means were separated using Tukey's HSD (α = 0.05).

| Compound | EC50 (ppm) [1] | LC50 (ppm) [2] | LC50 (ppm) [3] | Mean Percent Control [4] | Mean Percent Control (M. incognita) |
| --- | --- | --- | --- | --- | --- |
| CCC(CC)[C@H](C)NC(=O)c1ccoc1Cl [Molecule S1, (S)-2-chloro-N-(3-ethylpentan-2-yl)furan-3-carboxamide] | 4.95 ppm | 1.799 ppm | 6.89 ppm | 84% | 77.5% |
| C[C@H](NC(=O)c1ccoc1Cl)C1CCCC1 [Molecule C5] | – | – | – | 50% | 22.5% |
| CCC(CC)C(C)NC(=O)c1ccoc1Cl (racemic) [Molecule B1, 2-chloro-N-(3-ethylpentan-2-yl)furan-3-carboxamide] | 16.84 ppm | 23.28 ppm | 24.72 ppm | – | – |
| CC(C)C[C@H](C)NC(=O)c1ccoc1Cl [Molecule C2] | – | – | – | 54% | 25.0% |
| CCC(CC)[C@@H](C)NC(=O)c1ccoc1Cl [Molecule R1, (R)-2-chloro-N-(3-ethylpentan-2-yl)furan-3-carboxamide] | >125 ppm | >62.5 ppm | >62.5 ppm | – | 7.5% |
| C[C@H](NC(=O)c1ccoc1Cl)C1CCCCC1 [Molecule C4] | – | – | – | 25% | 2.5% |
| CC(C)[C@H](C)NC(=O)c1ccoc1Cl [Molecule C3] | – | – | – | 67% | 22.5% |
